What all share (format): cell-based
The test system of series [1] is A. baumannii CAN-ICU 63169. Here is the method: (§1) The synthesized SPRLPs were evaluated for their antibacterial potency against a panel of Gram-positive and Gram-negative bacteria (Tables 2 & 3). Some of the included pathogens were collected from patients visiting or admitted to participating Canadian hospitals through the CAN-ICU (27) and CANWARD (28) national surveillance studies. Antibacterial activity was assessed using minimum inhibitory concentration (MIC) against various clinical pathogens.
(§2) Isolates used in this study were either obtained from the American Type Culture Collection (ATCC), the Canadian National Intensive Care Unit (CAN-ICU) surveillance study (27) or the Canadian Ward Surveillance (CANWARD) study (28). Clinical isolates belonging to the CAN-ICU and CANWARD studies were recovered from patients suffering a presumed infectious disease entering or admitted in a participating medical center across Canada during the time of study. MDR P. aeruginosa strains in this study refer to those that are resistant to aminoglycosides, fluoroquinolones, cephalosporins, and carbapenems while XDR strains are those that are resistant to aminoglycosides, fluoroquinolones, cephalosporins, carbapenems, aztreonam and penicillin+β-lactamase inhibitor combination (39, 40).
(§3) Microbroth dilution susceptibility test following the Clinical and Laboratory Standards Institute (CLSI) guidelines (32) was performed to assess the in vitro antibacterial activity of SPRLPs. Overnight grown bacterial cultures were diluted in saline to achieve a 0.5 McFarland turbidity, followed by 1:50 dilution in Mueller-Hinton broth (MHB) for inoculation to a final concentration of 5×10^5 colony forming units/mL. The assay was done on a 96-well plate to which the agents of interest were 2-fold serially diluted in MHB and incubated with equal volumes of inoculum at 37° C. for 18 hours. MIC was determined as the lowest concentration to inhibit visible bacterial growth in form of turbidity, which was confirmed using EMax Plus microplate reader (Molecular Devices, USA) at a wavelength of 590 nm. The well containing MHB broth with or without bacterial cells was used as positive or negative control, respectively.

Another series relates to E. coli ATCC 25922. Here is the method: as §1, §2, §3
The subject of series [2] is E. coli CAN-ICU 61714 (gentamicin-resistant). Here is the method:
as §1, §2, §3

In series [3] the test system is E. coli CAN-ICU 63074 (amikacin-intermediate resistant). How it is done: as §1, §2, §3
In series [4] the test system is E. coli CANWARD-2011 97615 (gentamicin-, tobramycin-, ciprofloxacin-resistant) aac(3′)iia. How it is done:
as §1, §2, §3

The subject of a further series is E. faecalis ATCC 29212. Here is the method: as §1, §2, §3
The next series relates to E. faecium ATCC 27270. Here is the method:
as §1, §2, §3

Another series relates to K. pneumoniae ATCC 13883. How it is done: as §1, §2, §3
Another series concerns P. aeruginosa ATCC 27853. How it is done: as §1, §2, §3
The test system of series [5] is P. aeruginosa CAN-ICU 62308 (gentamicin-resistant). How it is done:
as §1, §2, §3

The subject of series [6] is P. aeruginosa CANWARD-2011 96846 (gentamicin-, tobramycin-resistant). How it is done:
as §1, §2, §3

For series [7], the system named is P. aeruginosa wild-type PAO1. Here is the method: as §1, §2, §3
In a further series the test system is S. aureus ATCC 29213. Here is the method:
as §1, §2, §3

Series [8] has as its system S. maltophilia CAN-ICU 62584. How it is done:
as §1, §2, §3

In series [9] the test system is methicillin-resistant S. aureus ATCC 33592. Here is the method: as §1, §2, §3
For series [10], the system named is methicillin-resistant S. epidermidis CAN-ICU 61589 (ceftazidime-resistant). To be noted: methicillin-resistant CAN-ICU 61589 (ceftazidime-resistant). How it is done: as §1, §2, §3
Series [11] relates to methicillin-susceptible Staphylococcus epidermidis CANWARD-2008 81388. To be noted: methicillin-susceptible CANWARD-2008 81388. How it is done: as §1, §2, §3
The next series has as its system pig erythrocytes. To be noted: red cells of porcine. Here is the method: Since PRAMPs are able to kill bacteria through membrane lysis, it is imperative to evaluate whether these synthesized SPRLPs also lyse eukaryotic membranes. The ability to lyse porcine red blood cells was assessed and the minimum concentration to result in 5% erythrocyte hemolysis (MHC) was reported (Tables 2 & 3). […] This greatly limits their therapeutic potential. […] However, all other SPRLPs were non-hemolytic (MHC>512 μg/mL).
The ability of SPRLPs to lyse eukaryotic red blood cells were quantified by the amount of hemoglobin released upon incubation with pig erythrocytes, following published protocols (37, 39). Fresh pig blood drawn from pig antecubital vein was centrifuged at 1000×g for 5 minutes at 4° C., washed with PBS three times and re-suspended in the same buffer, consecutively. Then, agents of interest were 2-fold serially diluted in PBS on 96-well plate and mixed with equal volumes of erythrocyte solution. Post 1-hour incubation at 37° C., intact cells were pelleted by centrifugation at 1000×g for 5 minutes at 4° C. The supernatant was then transferred to a new 96-well plate. The hemoglobin released was measured via EMax Plus microplate reader (Molecular Devices, USA) at 570 nm wavelength. Erythrocytes in PBS with or without 0.1% Triton X-100 was used as negative or positive control, respectively.

This is an account of results in patent US20200407398A1, “Short Proline-Rich Lipopeptide Potentiates Minocycline and Rifampicin Against Multidrug-and Extensively Drug-Resistant Pseudomonas Aeruginosa” (priority 2018, published 2020).

Peptide text beside a SMILES is read from it. * marks the point of attachment. Lauroyl = CCCCCCCCCCCC(=O)*; Octanoyl = CCCCCCCC(=O)*

A word on the MIC: it is the least concentration at which growth counts as inhibited. As for `CCCCCCCC(=O)N1CCC[C@H]1C(=O)N[C@@H](CCCNC(=N)N)C(=O)N1CCC[C@H]1C(=O)N[C@@H](Cc1c[nH]c2ccccc12)C(=O)N1CCC[C@H]1C(=O)N[C@@H](CCCNC(=N)N)C(=O)N1CCC[C@H]1C(N)=O` [Compound C8-PWP, CH3(CH2)6CO-PRPWPRP-NH2] (Octanoyl-PRPWPRP-NH2), the MIC (in series [1]; in the series on E. coli ATCC 25922; in series [2]; in [3]; in series [4]; with E. faecalis ATCC 29212) was over 128 µg/mL throughout. Also, the MIC with E. faecium ATCC 27270 was over 128 µg/mL; in the series with K. pneumoniae ATCC 13883, over 128 µg/mL; in the series on P. aeruginosa ATCC 27853, over 128 µg/mL; in series [5], over 128 µg/mL; in [6], over 128 µg/mL; in [7], over 512 µg/mL. For the same compound, the MIC (with S. aureus ATCC 29213; in series [8]; in series [9]; in series [10]; in series [11]) was over 128 µg/mL throughout. Moreover, the “MHC (minimum concentration that resulted in 5% red blood cell hemolysis)” value with pig erythrocytes is over 512 µg/mL.

For the compound `CCCCCCCCCCCC(=O)N1CCC[C@H]1C(=O)N[C@@H](CCCNC(=N)N)C(=O)N1CCC[C@H]1C(=O)NCC(=O)N1CCC[C@H]1C(=O)N[C@@H](CCCNC(=N)N)C(=O)N1CCC[C@H]1C(N)=O` [Compound C12-PGP, CH3(CH2)10CO-PRPGPRP-NH2] (Lauroyl-PRPGPRP-NH2), the MIC (in series [1]; in the series on E. coli ATCC 25922; in [2]; in series [3]; in series [4]; in the series with E. faecalis ATCC 29212) was over 128 µg/mL throughout. The minimum inhibitory concentration (MIC) with E. faecium ATCC 27270 was over 128 µg/mL; in the series with K. pneumoniae ATCC 13883 it was over 128 µg/mL; in the series with P. aeruginosa ATCC 27853, over 128 µg/mL; in series [5] it was over 128 µg/mL; in [6], over 128 µg/mL; in series [7], over 512 µg/mL. Also, the MIC in the series on S. aureus ATCC 29213 was over 128 µg/mL; in [8], over 128 µg/mL; in series [9] it was over 128 µg/mL; in [10], over 128 µg/mL; in series [11] it was 128 µg/mL. In the series with pig erythrocytes, the “MHC (minimum concentration that resulted in 5% red blood cell hemolysis)” value is over 512 µg/mL.

On to `CCCCCCCCCCCC(=O)N1CCC[C@H]1C(=O)N[C@@H](CCCNC(=N)N)C(=O)N1CCC[C@H]1C(=O)N[C@@H](CC(C)C)C(=O)N1CCC[C@H]1C(=O)N[C@@H](CCCNC(=N)N)C(=O)N1CCC[C@H]1C(N)=O` [Compound C12-PLP, CH3(CH2)10CO-PRPLPRP-NH2] (Lauroyl-PRPLPRP-NH2), for which the MIC in series [1] is over 128 µg/mL; in the series with E. coli ATCC 25922, over 128 µg/mL; in series [2], over 128 µg/mL; in series [3] it was over 128 µg/mL; in [4], over 128 µg/mL; in the series with E. faecalis ATCC 29212, 128 µg/mL. The MIC was 128 µg/mL in the series on E. faecium ATCC 27270; over 128 µg/mL in the series on K. pneumoniae ATCC 13883; over 128 µg/mL in the series with P. aeruginosa ATCC 27853; over 128 µg/mL in [5]; over 128 µg/mL in series [6]; 512 µg/mL in series [7]. The MIC with S. aureus ATCC 29213 is 128 µg/mL; in series [8], over 128 µg/mL; in series [9], 128 µg/mL; in series [10], 64 µg/mL; in series [11] it was 64 µg/mL. Moreover, the “MHC (minimum concentration that resulted in 5% red blood cell hemolysis)” value in the series with pig erythrocytes was over 512 µg/mL.
